From patent US8410116B2, “Bis(styryl)pyrimidine or bis(styryl)benzene compounds, pharmaceutically acceptable salts thereof, preparation method thereof, and pharmaceutical composition for prevention or treatment of diseases featuring amyloids comprising the same as an active ingredient” (Korea Institute of Science and Technology, priority 2009, dated 2013)

Key:
HT-22 cells = assay: Cytotoxicity in HT-22 cell (MTT); assay type: cell-based, murine; conditions: compound 25 μM, 18 hrs
Description: The following experiment was performed with HT-22 cells in order to examine the cytotoxicity of the compounds of the Examples in accordance with the present invention.
(§1) The murine hippocampal neuronal cell line HT-22 was incubated at 37° C. in DMEM (Dulbecco's Modified Eagle's Medium) supplemented with 10% FBS (fetal bovine serum) and 1% penicillin/streptomycin in a 5% CO2 incubator. Before testing, HT-22 cells were seeded at a density of 5×10^3 cells/well onto 96-well plates containing serum-free DMEM and incubated for 1 hr. Afterwards, each of the compounds of Examples 1 to 27 was added at a concentration of 25 μM to each well before incubation for 18 hrs. 5 mg/ml MTT (3-(4,5-dimethyl-2-thiozolyl)-2,5-diphenyl-2H-tetrazolium bromide) solution was added in an amount of 15 μl per well and incubated for 4 hrs. A solubilization solution (10% SDS, 50% dimethylformamide, pH 4.7) was added in an amount of 100 μl to each well, followed by incubation for 18 hrs. Absorbance at 570 nm/630 nm was read on a microplate reader.

[1] = tested on: HT-22 cells incubated with beta amyloid (Aβ25-35); assay: Alleviating effect on beta amyloid toxicity in HT-22 cells (MTT); assay type: cell-based, murine; conditions: Mus musculus, compound pre-incubated 1 hr, then 25 μM beta amyloid (Aβ25-35) for 18 hrs, Aβ25-35 line = toxin alone, read-out: Cell Survival (%)
Description: as §1
The following experiment was performed in order to examine the ability of the compounds of the Examples in accordance with the present invention to alleviate beta amyloid toxicity. HT-22 cells were cultured and incubated with the compounds of Examples 1 to 27 for 1 hr in the same manner as in Example 2. Cell necrosis was induced by beta amyloid toxicity. For this, the cells were incubated with 25 μM of beta amyloid (Aβ25-35) for 18 hrs. Subsequently, a 5 mg/ml MTT solution was added in an amount of 15 μl to each well, followed by incubation for 4 hrs. Then, the cells were again incubated for 18 hrs with 100 μl/well of the solubilization solution. Absorbance at 570 nm/630 nm was read on a microplate reader.

beta amyloid (1-42) = beta amyloid (1-42) (Homo sapiens, UniProt P05067); assay: Inhibitory activity against beta amyloid fibril formation (ThT fluorescence); assay type: biochemical; conditions: for remaining activity at 10 µM: compound 10 μM, beta amyloid (1-42) 25 μM, 1 hr room temperature, beta amyloid alone (control) = 100
Sequence of beta amyloid (1-42) (P05067 672-713 limits assumed): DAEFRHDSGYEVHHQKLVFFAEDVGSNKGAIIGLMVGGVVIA
Description: The compounds of the present invention were assayed for inhibitory activity against the formation of beta amyloid fibrils as a function of ThT fluorescence intensity as follows. Beta amyloid (1-42) and each of the compounds of Examples 1 to 27 were dissolved in DMSO and diluted with PBS (phosphate-buffered saline, pH 7.4). The final concentrations of beta amyloid (1-42) (control) and each of the compounds of Examples 1 to 27 were set at 25 μM and 10 μM, respectively. The dilutions were incubated at room temperature for 1 hr before a solution of thioflavin T (ThT, 5 μM, pH 8.5) in glycin-NaOH buffer was added thereto. Fluorescence was measured at 450 nm for excitation (slit 10 nm) and […] for emission (slit 10 nm) on 96-well microplates using a multilabel fluorescence counter.

| SMILES | remaining activity at 10 µM (beta amyloid (1-42)) [%] | Inhibitory activity against fibril formation (in words) (beta amyloid (1-42); Table 3) | Cell Survival (%) (HT-22 cells) | viability at 25 µM [1] [%] |
| --- | --- | --- | --- | --- |
| COc1nc(/C=C/c2ccc(O)c(OC)c2)cc(/C=C/c2ccc(O)c(OC)c2)n1 [Ex. 10, 2-methoxy-(E,E)-4,6-bis(4′-hydroxy-3′-methoxystyryl)pyrimidine] | 32 ± 11.6 | – | 75.2 ± 12.5 | 71.7 ± 14.8 |
| Oc1ccc(/C=C/c2cc(/C=C/c3ccc(O)cc3)ncn2)cc1 [Ex. 4, (E,E)-4,6-bis(4′-hydroxystyryl)pyrimidine] | 35.7 ± 7 | – | 104.2 ± 7.1 | 81 ± 1.2 |
| COc1nc(/C=C/c2ccc(O)c(N(C)C)c2)cc(/C=C/c2ccc(O)c(N(C)C)c2)n1 [Ex. 12, 2-methoxy-(E,E)-4,6-bis[4′-hydroxy-3′-(N,N-dimethylamino)styryl]pyrimidine] | 25.9 ± 7.3 | – | 96.6 ± 13.7 | 59 ± 5.7 |
| CSc1nc(/C=C/c2ccc(O)c(N(C)C)c2)cc(/C=C/c2ccc(O)c(N(C)C)c2)n1 [Ex. 18, 2-methylthio-(E,E)-4,6-bis[4′-hydroxy-3′-(N,N-dimethylamino)styryl]pyrimidine] | 21.4 ± 10.3 | – | 77.3 ± 15.1 | 50.9 ± 5.7 |
| COc1nc(/C=C/c2cccc(O)c2)cc(/C=C/c2cccc(O)c2)n1 [Ex. 9, 2-methoxy-(E,E)-4,6-bis(3′-hydroxystyryl)pyrimidine] | 129 ± 11.6 | – | 45.9 ± 4.2 | 47.7 ± 3.3 |
| CSc1nc(/C=C/c2cccc(O)c2)cc(/C=C/c2cccc(O)c2)n1 [Ex. 15, 2-methylthio-(E,E)-4,6-bis(3′-hydroxystyryl)pyrimidine] | 153 ± 16.3 | – | 43.7 ± 6.6 | 39.6 ± 0.4 |
| COc1ccc(/C=C/c2cccc(/C=C/c3ccc(OC)c(O)c3)c2)cc1O [Ex. 3, (E,E)-1,3-Bis(3′-hydroxy-4′-methoxystyryl)benzene] | 32.1 ± 1.1 | – | 69.5 ± 4.2 | 54.7 ± 5.3 |
| COc1nc(/C=C/c2ccc(N(C)C)c(O)c2)cc(/C=C/c2ccc(N(C)C)c(O)c2)n1 [Ex. 13, 2-methoxy-(E,E)-4,6-bis[3′-hydroxy-4′-(N,N-dimethylamino)styryl]pyrimidine] | 9.6 ± 3.7 | remarkable inhibitory activity | 101.4 ± 2.5 | 67.4 ± 5.1 |
| CSc1nc(/C=C/c2ccc(O)cc2)cc(/C=C/c2ccc(O)cc2)n1 [Ex. 14, 2-methylthio-(E,E)-4,6-bis(4′-hydroxystyryl)pyrimidine] | 32.6 ± 7.4 | – | 65.3 ± 6.0 | 34.2 ± 4 |
| COc1ccc(/C=C/c2cc(/C=C/c3ccc(OC)c(O)c3)nc(SC)n2)cc1O [Ex. 17, 2-methylthio-(E,E)-4,6-bis(3′-hydroxy-4′-methoxystyryl)pyrimidine] | 24.8 ± 11.1 | – | 78.8 ± 9.3 | 78.3 ± 0.4 |
| COc1nc(/C=C/c2ccc(O)cc2)cc(/C=C/c2ccc(O)cc2)n1 [Ex. 8, 2-methoxy-(E,E)-4,6-bis(4′-hydroxystyryl)pyrimidine] | 32.6 ± 7.3 | – | 101.2 ± 31.8 | 100 ± 7 |
| COc1nc(/C=C/c2ccc(OC)c(O)c2)cc(/C=C/c2ccc(OC)c(O)c2)n1 [Ex. 11, 2-methoxy-(E,E)-4,6-bis(3′-hydroxy-4′-methoxystyryl)pyrimidine] | 45 ± 9.2 | – | 98.4 ± 2.7 | 66.2 ± 11.5 |
| COc1cc(/C=C/c2cc(/C=C/c3ccc(O)c(OC)c3)nc(SC)n2)ccc1O [Ex. 16, 2-methylthio-(E,E)-4,6-bis(4′-hydroxy-3′-methoxystyryl)pyrimidine] | 32.4 ± 12.5 | – | 79.0 ± 7.9 | 49 ± 4.2 |
| Oc1cccc(/C=C/c2cc(/C=C/c3cccc(O)c3)ncn2)c1 [Ex. 5, (E,E)-4,6-bis(3′-hydroxystyryl)pyrimidine] | 85.9 ± 19.7 | – | 142.5 ± 5.6 | 43.5 ± 13.4 |

Now from value to compound, other results behind:

| remaining activity at 10 µM (beta amyloid (1-42)) [%] | Inhibitory activity against fibril formation (in words) (beta amyloid (1-42); Table 3) | SMILES | Cell Survival (%) (HT-22 cells) | viability at 25 µM [1] [%] |
| --- | --- | --- | --- | --- |
| 92.9 ± 12.4 | – | Oc1cccc(/C=C/c2cc(O)cc(/C=C/c3cccc(O)c3)c2)c1 [Ex. 23, (E,E)-3,5-bis(3′-hydroxystyryl)phenol] | 59.2 ± 15.4 | 47.7 ± 11.1 |
| 11.2 ± 4.2 | – | CSc1nc(/C=C/c2ccc(N(C)C)c(O)c2)cc(/C=C/c2ccc(N(C)C)c(O)c2)n1 [Ex. 19, 2-methylthio-(E,E)-4,6-bis[3′-hydroxy-4′-(N,N-dimethylamino)styryl]pyrimidine] | 85.3 ± 8.1 | 69.7 ± 0.4 |
| 44 ± 8.3 | – | CN(C)c1ccc(/C=C/c2cccc(/C=C/c3ccc(N(C)C)c(O)c3)c2)cc1O [Ex. 21, (E,E)-1,3-bis[3′-hydroxy-4′-(N,N-dimethylamino)styryl]benzene] | 100.8 ± 7.6 | 52.8 ± 7.2 |
| 19.3 ± 1.1 | – | Oc1ccc(/C=C/c2cc(O)cc(/C=C/c3ccc(O)cc3)c2)cc1 [Ex. 22, (E,E)-3,5-bis(4′-hydroxystyryl)phenol] | 37.4 ± 4.7 | 50.6 ± 10.1 |
| 15.5 ± 3.8 | – | COc1ccc(/C=C/c2cc(O)cc(/C=C/c3ccc(OC)c(O)c3)c2)cc1O [Ex. 25, (E,E)-3,5-bis(3′-hydroxy-4′-methoxystyryl)phenol] | 73.5 ± 14.1 | 43.2 ± 10 |
| 16.7 ± 0.7 | – | CN(C)c1ccc(/C=C/c2cc(O)cc(/C=C/c3ccc(N(C)C)c(O)c3)c2)cc1O [Ex. 27, (E,E)-3,5-bis[3′-hydroxy-4′-(N,N-dimethylamino)styryl]phenol] | 64.4 ± 4.2 | 50.5 ± 3.9 |
| 21 ± 2.4 | – | COc1cc(/C=C/c2cc(O)cc(/C=C/c3ccc(O)c(OC)c3)c2)ccc1O [Ex. 24, (E,E)-3,5-bis(4′-hydroxy-3′-methoxystyryl)phenol] | 80.9 ± 13.1 | 39.9 ± 9.5 |
| 36.1 ± 10.1 | – | CN(C)c1cc(/C=C/c2cccc(/C=C/c3ccc(O)c(N(C)C)c3)c2)ccc1O [Ex. 20, (E,E)-1,3-bis[4′-hydroxy-3′-(N,N-dimethylamino)styryl]benzene] | 95.7 ± 8.3 | 45.8 ± 9.1 |
| 25.8 ± 5.8 | – | CN(C)c1cc(/C=C/c2cc(O)cc(/C=C/c3ccc(O)c(N(C)C)c3)c2)ccc1O [Ex. 26, (E,E)-3,5-bis[4′-hydroxy-3′-(N,N-dimethylamino)styryl]phenol] | 66.0 ± 12.1 | 47.4 ± 0.6 |
